Reference: US12023331B2 (priority 2018, dated 2024)

Columns and labels:
5-HT2 receptor = test: DOI-induced head twitch model in mice; format: in vivo; conditions: compound orally 0.5 hr before DOI
[1] = system: AMPA-induced currents in rat mPFC; test: AMPA-induced currents in rat mPFC slices, whole-cell patch clamp; format: cell-based
Protocol: Combined administration of the antipsychotic, olanzapine, and the SSRI, fluoxetine, similarly induces rapid antidepressant activity in humans and animals (Tohen et al., 2010); likewise, combined application of olanzapine and fluoxetine is required to induce AMPA receptor currents in vitro.
In contrast, the antipsychotic drug olanzapine, is found to enhance AMPA-induced currents only in the presence of the SSRI fluoxetine. 3 nM olanzapine alone results in about 100% of the AMPA-induced current of the control, while 100 nM fluoxetine results in about 90% of the AMPA-induced current of the control. However, the combination of 3 nM olanzapine and 100 nM fluoxetine is found to synergistically result in almost 150% of the AMPA-induced current of control. When SCH 23390 (1 μM) is combined with the olanzapine and fluoxetine, however, the AMPA-induced current returns to approximately 100% of the control level.

Mu opiate receptor = Mu opiate receptor (Homo sapiens (Human), UniProt P35372); test: biochemical
[2] = Clinical studies in patients with acute exacerbated schizophrenia; format: in vivo, human; conditions: 60 mg P.O. once daily up to 28 days
Text: Social avoidance can be a critical and debilitating symptom in patients suffering from anxiety disorders, especially social anxiety disorder, as well as in patients suffering from traumatic anxiety disorders. Social avoidance is often one of the key determinants of whether a person with a severe anxiety disorder is capable of maintaining familial relationships or employment relationships. […] Negative symptoms of schizophrenia can be divided into two categories: emotional experience (e.g., emotional withdrawal, passive social withdrawal, active social avoidance) and emotional expression (e.g., blunted effect, poor rapport, lack of spontaneity, and motor retardation). […] These are the symptoms that are most highly correlated with interpersonal functioning.

[3] = system: NMDA-induced currents in rat mPFC; test: NMDA-induced currents in rat mPFC slices, whole-cell patch clamp; format: cell-based
mTORC1 signaling pathway = test: Phosphorylation of mTOR pathway proteins in rat PFC; format: in vivo; conditions: for mTOR phosphorylation (Serine 2448) / increase in phosphorylation of AKT at thr308 / p70s6K phosphorylation (Threonine 389): rat PFC, 30 mg/kg ketamine or 3 mg/kg Formula A i.p.; for increase in phosphorylation of AKT at thr308: both 1 hour and 24 hours post-administration; for p70s6K phosphorylation (Threonine 389): over 24 hours
[4] = 40-minute infusion, total dose 0.5 mg/kg; after 24 hours; cited from earlier work

SMILES: O=C1CN2c3c(cccc3[C@@H]3CN(CCCOc4ccc(F)cc4)CC[C@@H]32)N1 [Example 1, (6bR,10aS)-8-(3-(4-fluorophenoxy)propyl)-6b,7,8,9,10,10a-hexahydro-1H-pyrido[3′,4′:4,5]pyrrolo[1,2,3-de]quinoxalin-2(3H)-one]
- EC50 for reducing DOI-induced head twitches (5-HT2 receptor): 0.44 mg/kg, p.o.

SMILES: CNCCC(Oc1ccc(C(F)(F)F)cc1)c1ccccc1 (stereo not shown) [fluoxetine]
- AMPA-induced current of the control ([1]; 100 nM fluoxetine): about 90%

SMILES: CN1CCN2c3c(cccc31)[C@@H]1CN(CCCC(=O)c3ccc(F)cc3)CC[C@@H]12 [Formula A, lumateperone]
- Ki (Mu opiate receptor): > 10 µM
- AMPA-induced currents compared to control ([1]; Formula A 30 nM, alone and with SCH 23390 (1 μM), rat mPFC): Substantially the same results
- symptoms of emotional experience compared to placebo [2]: significant and unexpected improvement
- NMDA-induced currents compared to control ([3]; 30 nM): ~150%
- NMDA-induced currents compared to control ([3]; Formula A 30 nM combined with SCH 23390 (1 μM)): about 90 % of control
- activation of the mTORC1 signaling pathway in mPFC (mTORC1 signaling pathway; adult rats, 1 to 8 mg/kg i.p., 60 min, 90 min or 24 hours): rapidly activates the mTORC1 signaling pathway
- mTOR phosphorylation (Serine 2448) (mTORC1 signaling pathway): Neither ketamine nor the Compound of Formula A results in a change
- increase in phosphorylation of AKT at thr308 (mTORC1 signaling pathway): ~50%
- p70s6K phosphorylation (Threonine 389) (mTORC1 signaling pathway): progressively increases

SMILES: CNC1(c2ccccc2Cl)CCCCC1=O (stereo not shown) [ketamine]
- mTOR phosphorylation (Serine 2448) (mTORC1 signaling pathway): Neither ketamine nor the Compound of Formula A results in a change
- increase in phosphorylation of AKT at thr308 (mTORC1 signaling pathway): ~50%
- p70s6K phosphorylation (Threonine 389) (mTORC1 signaling pathway): transiently increase
- ratings on the Hamilton Depression Rating Scale (HDRS) compared to placebo [4]: significantly improved ratings

SMILES: Cc1cc2c(s1)Nc1ccccc1N=C2N1CCN(C)CC1 [olanzapine]
- AMPA-induced current of the control ([1]; 3 nM olanzapine alone): about 100%
